We go through four compounds from PMC4153677, “Probing the Activity Modification Space of the Cysteine Peptidase Cathepsin K with Novel Allosteric Modifiers” (PLoS ONE, 2014).

What all share (assay type): biochemical
For test [1], the target named is T1, Recombinant human cathepsin K (Homo sapiens, UniProt P43235).
T1 construct: made in house
T1 sequence (P43235 115-329): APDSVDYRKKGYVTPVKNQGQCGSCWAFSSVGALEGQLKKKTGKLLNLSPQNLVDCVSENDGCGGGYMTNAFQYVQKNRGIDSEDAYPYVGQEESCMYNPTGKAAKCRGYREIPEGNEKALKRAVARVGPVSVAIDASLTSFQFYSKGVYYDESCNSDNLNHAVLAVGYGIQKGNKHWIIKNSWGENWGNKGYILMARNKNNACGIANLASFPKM
Kind of test: Thermal stability of cathepsin K at pH 7.4 in the presence of modifiers. The settings on record: 37 °C and pH 7.4. As for the experimental part:
Cathepsin K was incubated at 37°C in 50 mM Hepes buffer pH 7.40 containing 1 mM EDTA and 5 mM DTT in the presence or absence of each modifier. The final enzyme concentration was 0.2 µM and final compounds concentrations were 2 mM, except compound 2, which was used at a concentration of 1 mM. All experiments were performed in Eppendorf Protein LoBind Tubes to minimize the adsorption of proteins on tube walls. Aliquots were withdrawn from the reaction mixtures at regular time intervals and their residual activity measured using the substrate Z-FR↓AMC (5 µM final concentration). Inactivation curves had exponential profiles that were fitted with the mathematical model for one-phase exponential decay to determine the half-life of the enzyme in each reaction mixture.

The target of test [2] is T1, Recombinant human cathepsin K. Nature of the test: Azocasein degradation assays. The settings on record: for Effect on azocasein degradation / remaining activity: compounds up to 2 mM (compound 2: 1 mM); for remaining activity: pH 5.5, substrate azocasein 3 mg/ml, 0.1 µM cathepsin K, 30 min 37°C, pH 5.50, read-out: Residual activity; for azocasein: fraction of residual enzyme activity: value of 1 equals the activity of unmodified enzyme, activity modification matrix. An excerpt: Figure 4 Effect of modifiers on the degradation of macromolecular substrates. (A) Effect of increasing concentrations of compounds 1 and 2 on the degradation of calf skin collagen. Molecular mass standards are given in kDa and positions of α, β and γ chains of intact collagen are marked by arrows. (B) Effect of modifiers on azocasein degradation. (C) Effect of glycosaminoglycans and clusterin on azocasein degradation. Two different concentrations of each glycosaminoglycan were used in the experiments (10 µg/ml and 200 µg/ml). Error bars in panels B and C represent the SEM of three experiments. All experiments were performed in 100 mM sodium acetate buffer pH 5.50 containing 1 mM EDTA and 5 mM DTT, as described in detail in the Materials and Methods section. Abbreviations: CPD – compound, CS – chondroitin sulfate, DS – dermatan sulfate, HP – heparin.
Azocasein (Sigma-Aldrich, USA) was dissolved in 100 mM sodium acetate buffer pH 5.50 containing 1 mM EDTA and 5 mM DTT at a concentration of 3 mg/ml. Samples were incubated with 0.1 µM cathepsin K for 30 min at 37°C in the presence of each compound. […] Reactions were stopped by addition of trichloroacetic acid (final concentration 5% v/v), centrifuged, clear supernatants mixed with 0.5 M NaOH and the concentrations of solubilized peptides determined by measuring the absorbance at 440 nm. All experiments were performed in triplicates and appropriate blanks were run to take into account the absorption of azocasein and compounds alone. IC 50 values were determined as described previously.

Test [3] shares this target. Nature of the test: Collagenolytic assays (calf skin collagen, SDS-PAGE). Details: key to collagen: qualitative value: qualitative values of 1 and 0 were used to signify inhibition and lack thereof, respectively; qualitative values of 1 and 0 were used to signify inhibition and lack thereof, respectively; a value of -1 was used to describe the concentration-dependent roles of glycosaminoglycans. The settings on record: for collagen: qualitative value: activity modification matrix; for IC50: substrate calf skin collagen 0.5 mg/ml, 0.6 µM cathepsin K, 2 hours 28°C, pH 5.50, estimated. The method, then:
The use of synthetic substrates is practical for the determination of the mechanisms of modification. […] Therefore, all modifiers were also tested with two macromolecular substrates, calf skin collagen and azocasein. The collagenolytic activity was tested quantitatively by following the fragmentation of the characteristic type I collagen pattern into smaller products on SDS-PAGE after incubation of the samples with cathepsin K in the presence and absence of modifiers.
Soluble calf skin collagen (Worthington Biochemical Corporation, USA) was diluted in 100 mM sodium acetate buffer pH 5.50 containing 1 mM EDTA and 5 mM DTT to a final concentration of 0.5 mg/ml. Experiments were started by addition of cathepsin K (final enzyme concentration 0.6 µM) to the reaction mixture containing collagen and increasing concentrations of modifier. All assays were performed at 28°C with shaking on an Eppendorf Thermomixer Comfort. Samples were incubated for 2 hours and the reactions then blocked by addition of E-64 to a final concentration of 1 µM. 10 µg of digested collagen were analyzed by SDS-PAGE on 8% polyacrylamide gels and protein bands visualized by Coomassie Brilliant Blue R-250 staining.

The target is the same in test [4]. Kind of test: Kinetic measurements, hydrolysis of the fluorogenic substrate Z-FR↓AMC (general modifier mechanism). Set-up: key to α (coefficient, effect of modifier on the affinity for the substrate) / β (coefficient, effect of modifier on the catalytic rate): dimensionless coefficients multiplying KS (α) and kcat (β). The settings on record: for Z-FRAMC: geometric mean of residual activities (vA): at 0.1×Km and 10×Km substrate, modifier 10×KA, calculated with Equation 1 from α and β of Table 3, unmodified enzyme = 1.00; for Kinetic mechanism of modification / α (coefficient, effect of modifier on the affinity for the substrate) / β (coefficient, effect of modifier on the catalytic rate) / Kd: substrate Z-FR↓AMC; for Kinetic mechanism of modification: from combinations of α and β; for α (coefficient, effect of modifier on the affinity for the substrate) / β (coefficient, effect of modifier on the catalytic rate) / Kd: pH 5.50, 25°C, 0.5 nM enzyme; for Kd: read-out: K A (equilibrium dissociation constant of the EA complex). The method, then: All modifiers were tested for their effect on the hydrolysis of the low molecular mass synthetic substrate Z-FR↓AMC. Since all progress curves were linear from the beginning of the reaction, initial velocities were calculated from the slopes by linear regression. […] The basic mechanism considered for the analysis of the interactions was the general modifier mechanism shown in Figure 2, in which the effect of modifier is determined by the values of the coefficients α and β that multiply the kinetic parameters K S, K A (α) and k cat (β). In the thermodynamic box embodied in Figure 2, the reciprocal of the coefficient α represents the allosteric coupling constant that characterizes energy linkage between the modifier and the substrate, while a […] represents the effect exerted by the modifier on catalysis. The specific velocity plot was used for the primary screening of the kinetic behavior of the modifiers (Equation 2), as it allows an immediate judgment of the type of interaction and to gather preliminary estimates of the coefficients α and β, as well as of the dissociation constant of the modifier. Refinement was then performed by fitting the rate Equation 1 to data.
Figure 3 Kinetic mechanisms of the identified modifiers. All compounds were characterized by a combination of specific velocity plots (upper panels) and titration curves recorded at fixed substrate concentrations (lower panels). All experiments were performed at 25±1°C in 100 mM sodium acetate buffer pH 5.50 containing 1 mM EDTA and 2.5 mM DTT using the fluorogenic substrate Z-FR↓AMC and at a final enzyme concentration of 0.5 nM.
All kinetic measurements were performed in 100 mM sodium acetate buffer pH 5.50 containing 1 mM EDTA and 2.5 mM dithiothreitol (DTT) in single-use acrylic cuvettes (1×1 cm) thermostatted at 25±1°C with magnetic stirring. The hydrolysis of Z-FR↓AMC was followed fluorometrically at λex 383 nm and λem 455 nm. All tested modifiers were analyzed spectroscopically to determine their absorption properties under the conditions used in the assays. When necessary, appropriate corrections were made to the calculated reaction rates to take into account the inner filter effect.
The effects of the modifiers on enzymatic activity were analyzed with the general modifier mechanism which describes the interaction between enzyme (E), substrate (S) and modifier (A), as shown in Figure 2. Assuming that binding of A to E and ES is at quasi-equilibrium and that steady-state conditions are established in the fluxes around ES and ESA (i.e. the catalytic steps), the reaction rate for the mechanism in Figure 2 is defined by Equation 1: [drawing 2] (1) where v 0 is the reaction rate in the absence of modifier, K A is the equilibrium dissociation constant of the EA complex, α and β are dimensionless coefficients and σ = [S]/K m, approximated to [S]/K s. To determine the mechanism of interaction, plot the kinetic data and calculate preliminary values of the interaction parameters, the specific velocity plot was used. For this purpose, Equation 1 is rewritten as:
The plot of v 0/v A versus σ/(1+σ) produces straight lines with intersection points at v 0/v A = 1, regardless of the interaction mechanism. The parameters α, β and K A are determined by replotting the extrapolated values of the straight lines at σ/(1+σ) = 0 (a) and σ/(1+σ) = 1 (b) versus 1/[A] in the form: [drawing 4] (3) [drawing 5] (4)

Structures are written as SMILES.

As for `O=C(O)c1ccccc1C(=O)Nc1cccc([N+](=O)[O-])c1` [Compound 7, 2-[(3-Nitrophenyl)carbamoyl]benzoic acid], the “stability: ln(sf), sf = ratio of half-lives in the presence and absence of modifier” value (shortened to “stability: ln(sf), sf = ratio”) in test [1] is given as 0.47. Moreover, in test [2], the “Effect on azocasein degradation” value is listed as “ineffective”, the remaining activity came out at 104 ± 5% and the “azocasein: fraction of residual enzyme activity” value was 1.01. Besides, in test [3], the “collagen: qualitative value” was 0 and the IC50 (commonly the midpoint of a concentration-inhibition curve) is reported as “n.i”. Besides, in test [4], the “Z-FRAMC: geometric mean of residual activities (vA)” value was 0.48; the “Kinetic mechanism of modification” value is “hyperbolic mixed inhibitors with uncompetitive character”; the “α (coefficient, effect of modifier on the affinity for the substrate)” value was 0.19±0.03; the “β (coefficient, effect of modifier on the catalytic rate)” value was found to be 0.19±0.03. Also, the Kd in test [4] turned out to be 290 ± 20 µM. In addition, in test [4] (listed as compound 7), the “α (coefficient, effect of modifier on the affinity for the substrate)” value is less than 1 and the “β (coefficient, effect of modifier on the catalytic rate)” value is reported as less than 1.

`COC(=O)CNC1CC(=O)N(c2ccc(OC)cc2)C1=O` (stereo not shown) [Compound 8, Methyl N-[1-(4-methoxyphenyl)-2,5-dioxopyrrolidin-3-yl]glycinate]: the “stability: ln(sf), sf = ratio” value in test [1] came out at 0.02. Besides, in test [2], the “Effect on azocasein degradation” value is recorded as “ineffective”, the remaining activity amounted to 101 ± 3% and the “azocasein: fraction of residual enzyme activity” value is 1.04. Moreover, in test [3], the “collagen: qualitative value” is 0 and the “IC50” value is recorded as “n.i”. For the same compound, in test [4], the “Z-FRAMC: geometric mean of residual activities (vA)” value was 0.60; the “Kinetic mechanism of modification” value is reported as “hyperbolic mixed inhibitors with uncompetitive character”; the “α (coefficient, effect of modifier on the affinity for the substrate)” value is 0.31±0.06; the “β (coefficient, effect of modifier on the catalytic rate)” value turned out to be 0.31±0.06. Further, the Kd in test [4] was 1100 ± 200 µM. Besides, in test [4] (listed as compound 8), the “α (coefficient, effect of modifier on the affinity for the substrate)” value is given as less than 1 and the “β (coefficient, effect of modifier on the catalytic rate)” value is given as less than 1.

For `NCC1CCN(CCc2ccccc2)CC1` [Compound 6, 1-[1-(2-Phenylethyl)-4-piperidinyl]-methanamine], the “stability: ln(sf), sf = ratio” value in test [1] came to 0.18. For the same compound, the “IC 50 relative to K A” value in test [2] (azocasein IC50 versus K A with Z-FR↓AMC) is on record as “about 4 fold”. The half-maximal inhibitory concentration (IC50) in test [2] (azocasein degradation) was 1100 ± 240 µM. In addition, in test [2], the remaining activity worked out at 77 ± 8% and the “azocasein: fraction of residual enzyme activity” value amounted to 0.77. In test [3], the “collagen: qualitative value” was determined as 0 and the “IC50” value is “n.i”. In test [4], the “Z-FRAMC: geometric mean of residual activities (vA)” value is 0.65; the “Kinetic mechanism of modification” value is “hyperbolic competitive inhibitor”; the “α (coefficient, effect of modifier on the affinity for the substrate)” value is reported as 3.0±0.2; the “β (coefficient, effect of modifier on the catalytic rate)” value came to 1. In addition, the Kd in test [4] is 270 ± 50 µM.

As to `O=C(O)C(Cc1ccccc1-c1ccccc1)C(=O)O` [Compound 4, (2-Biphenylylmethyl) malonic acid], the “stability: ln(sf), sf = ratio” value in test [1] was found to be 0.41. Moreover, in test [2], the remaining activity worked out at 90 ± 3%. Moreover, in test [3], the “collagen: qualitative value” was determined as 0 and the “IC50” value is reported as “n.i”. Moreover, in test [4], the “Z-FRAMC: geometric mean of residual activities (vA)” value is 0.70; the “Kinetic mechanism of modification” value is “hyperbolic mixed modifiers with a dual behavior as inhibitors or activators depending on substrate concentration”; the “α (coefficient, effect of modifier on the affinity for the substrate)” value was 5.6±1.2; the “β (coefficient, effect of modifier on the catalytic rate)” value is 1.5±0.3. In test [4], the Kd stood at 100 ± 40 µM. In test [4] (listed as compound 4), the “α (coefficient, effect of modifier on the affinity for the substrate)” value was more than 1 and the “β (coefficient, effect of modifier on the catalytic rate)” value is more than 1.
